What was measured:
[1] = biological target: T1, 3-galactosyl-N-acetylglucosaminide 4-alpha-L-fucosyltransferase FUT3 (Homo sapiens) (UniProt P21217); experiment: In vitro inhibition of Fucosyltransferase 3; parameters: concentration or dose not given beside the values; conditions: concentration not given here
T1 sequence (whole entry): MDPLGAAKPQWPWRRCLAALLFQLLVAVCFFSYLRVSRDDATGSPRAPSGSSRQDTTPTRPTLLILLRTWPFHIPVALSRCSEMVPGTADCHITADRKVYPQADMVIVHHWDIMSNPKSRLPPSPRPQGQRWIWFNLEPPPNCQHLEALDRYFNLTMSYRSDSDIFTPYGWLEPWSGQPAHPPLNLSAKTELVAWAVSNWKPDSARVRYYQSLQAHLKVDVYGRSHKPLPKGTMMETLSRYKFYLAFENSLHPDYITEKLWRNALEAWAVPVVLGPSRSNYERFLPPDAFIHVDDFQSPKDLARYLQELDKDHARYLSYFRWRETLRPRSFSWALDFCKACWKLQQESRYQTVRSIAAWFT

[2] = biological target: T2, 4-galactosyl-N-acetylglucosaminide 3-alpha-L-fucosyltransferase FUT6 (Homo sapiens) (UniProt P51993); experiment: In vitro inhibition of Fucosyltransferase 6; parameters: concentration or dose not given beside the values; conditions: concentration not given here
T2 sequence (whole entry): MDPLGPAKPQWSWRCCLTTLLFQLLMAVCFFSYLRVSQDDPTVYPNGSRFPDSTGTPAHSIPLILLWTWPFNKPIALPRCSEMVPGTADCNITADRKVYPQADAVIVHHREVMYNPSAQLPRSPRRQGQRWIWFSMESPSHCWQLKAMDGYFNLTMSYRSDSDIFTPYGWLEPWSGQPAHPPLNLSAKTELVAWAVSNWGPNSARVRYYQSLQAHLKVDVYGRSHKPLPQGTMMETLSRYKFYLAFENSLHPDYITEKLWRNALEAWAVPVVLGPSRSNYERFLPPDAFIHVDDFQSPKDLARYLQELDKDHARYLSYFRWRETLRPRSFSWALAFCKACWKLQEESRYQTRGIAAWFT

SMILES | inhibition [1] | inhibition [2]
C[C@@H]1O[C@H](OP(=O)(O)OP(=O)(O)OC[C@H]2O[C@@H](n3cnc4c(=O)[nH]c(=O)[nH]c43)[C@H](O)[C@@H]2O)[C@@H](O)[C@@H](O)[C@H]1O | 73% | 62%
C[C@@H]1O[C@H](OP(=O)(O)OP(=O)(O)OC[C@H]2O[C@@H](n3cnc4c(O)nc(N)nc43)[C@H](O)[C@@H]2O)[C@H](O)[C@@H](O)[C@@H]1O | 96% | 83%
C[C@@H]1O[C@H](OP(=O)(O)OP(=O)(O)OC[C@H]2O[C@@H](n3cnc4c(N)ncnc43)[C@H](O)[C@@H]2O)[C@@H](O)[C@@H](O)[C@H]1O | 76% | 60%
C[C@@H]1O[C@H](OP(=O)(O)OP(=O)(O)OC[C@H]2O[C@@H](n3cnc4c(O)ncnc43)[C@H](O)[C@@H]2O)[C@@H](O)[C@@H](O)[C@H]1O | 68% | 72%
C[C@@H]1O[C@H](OP(=O)(O)OP(=O)(O)OP(=O)(O)OC[C@H]2O[C@@H](n3cnc4c(O)nc(N)nc43)[C@H](O)[C@@H]2O)[C@H](O)[C@@H](O)[C@@H]1O | 0% | 0%
